For one series, the system named is xanthine oxidase. The settings on record: metabolite of allopurinol; cited from earlier work.
Series [1] has as its target T1, purified milk xanthine oxidase (Bos taurus, UniProt P80457).
T1 construct: purchased Worthington Biochemical Corporation
Briefly: Xanthine oxidase inhibition, spectrophotometric at 290 nm. It counts as biochemical. The settings on record: for relative activity (α) compared to allopurinol: ratio to allopurinol (allopurinol = 1); for IC50: xanthine substrate 0.013 micromoles in 3.0 ml, tris HCl buffer pH 7.50, 25° C, unit taken, none in table. How it is done:
In this example, the inhibitory activity of the compounds of the invention was determined by recording spectral changes at a constant wavelength of 290 nm, using a Cary Model 15 recording spectrophotometer equipped with a 0-0.1 O.D. slidewire. […] After dissolving in DMSO, the compounds were introduced into the incubation mixture containing 150 micromoles of tris HCl buffer (pH 7.50), 0.6 micromoles EDTA, 0.013 micromoles xanthine, and 20 to 40 micrograms of xanthine oxidase in a final volume of 3.0 milliliters. […] The assay was carried out by mixing all the components in a cuvette at 25° C. The reaction was started by the addition of the enzyme with the aid of a stirrer-adder. Changes in O.D. were measured for several minutes, and the rate (O.D. per minute) was calculated from the spectral change over the first 15 seconds.

For series [2] the following is noted: dose killing 50% of a group of animals in two weeks, injected into the intraparietal cavity; 20160 min; cited from earlier work.
The conditions of series [3]: cited from earlier work.

T1 sequence (P80457 whole entry): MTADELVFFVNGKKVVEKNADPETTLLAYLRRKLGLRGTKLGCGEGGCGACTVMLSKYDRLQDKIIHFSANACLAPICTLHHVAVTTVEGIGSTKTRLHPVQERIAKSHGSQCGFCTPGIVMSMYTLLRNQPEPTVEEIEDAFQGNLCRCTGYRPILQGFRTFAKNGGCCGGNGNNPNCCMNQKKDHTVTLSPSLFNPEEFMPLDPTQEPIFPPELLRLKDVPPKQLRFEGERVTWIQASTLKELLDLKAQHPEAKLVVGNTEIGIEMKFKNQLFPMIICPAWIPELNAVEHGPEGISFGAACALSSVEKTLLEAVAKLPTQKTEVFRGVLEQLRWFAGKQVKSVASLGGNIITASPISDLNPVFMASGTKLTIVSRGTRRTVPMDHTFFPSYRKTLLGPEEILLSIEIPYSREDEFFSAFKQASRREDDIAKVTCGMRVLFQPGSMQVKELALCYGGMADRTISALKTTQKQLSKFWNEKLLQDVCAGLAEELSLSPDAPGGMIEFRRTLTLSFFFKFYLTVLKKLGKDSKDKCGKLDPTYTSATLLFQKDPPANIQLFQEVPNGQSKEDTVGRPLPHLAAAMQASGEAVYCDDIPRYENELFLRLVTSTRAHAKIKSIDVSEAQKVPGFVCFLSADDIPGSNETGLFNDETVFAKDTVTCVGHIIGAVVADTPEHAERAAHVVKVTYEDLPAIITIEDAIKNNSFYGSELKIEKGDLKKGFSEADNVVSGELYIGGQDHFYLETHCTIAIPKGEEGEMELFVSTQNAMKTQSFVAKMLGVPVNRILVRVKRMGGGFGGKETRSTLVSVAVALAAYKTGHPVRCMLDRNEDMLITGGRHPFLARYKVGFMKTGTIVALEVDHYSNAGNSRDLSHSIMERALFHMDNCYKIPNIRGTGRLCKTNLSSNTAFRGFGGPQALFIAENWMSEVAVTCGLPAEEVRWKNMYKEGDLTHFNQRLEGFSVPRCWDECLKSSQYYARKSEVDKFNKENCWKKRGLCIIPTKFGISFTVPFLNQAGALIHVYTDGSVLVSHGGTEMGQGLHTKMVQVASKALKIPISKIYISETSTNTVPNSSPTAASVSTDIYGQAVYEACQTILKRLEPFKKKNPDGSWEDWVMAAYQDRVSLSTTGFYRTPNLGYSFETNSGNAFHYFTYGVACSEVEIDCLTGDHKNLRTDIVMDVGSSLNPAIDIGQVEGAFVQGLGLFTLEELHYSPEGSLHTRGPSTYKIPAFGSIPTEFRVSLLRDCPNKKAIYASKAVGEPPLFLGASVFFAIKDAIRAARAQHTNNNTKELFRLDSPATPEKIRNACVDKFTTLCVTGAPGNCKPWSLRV

With `Oc1nc(O)c2cn[nH]c2n1` [4,6-dihydroxy pyrazolo[3,4-d]pyrimidine], the “inhibitor effectiveness compared with allopurinol” value in the series on xanthine oxidase was “not as effective an inhibitor as is allopurinol”.
On to “3-(p-chlorophenyl)pyrazolo[1,5,a]pyrimidine-5,7-diol [(5)]”, for which, in series [1], the “relative activity (α) compared to allopurinol” value (“relative activity (α)” below) was found to be 131.
“3-(3'-pyridyl)pyrazolo[1,5,a]pyrimidine-5,7-diol [(8)]”: in series [1], the “relative activity (α)” value is 116.
For the molecule “3-phenyl pyrazolo[1,5,a]pyrimidine-5,7-diol [Compound (1)]”, the “relative activity (α)” value in series [1] is on record as 52.
As to `Oc1ncnc2[nH]ncc12` [Allopurinol, allopurinol], the LD50 entry in series [2] is “about 150 milligrams per kilogram of body weight”. The metabolism in vivo entry in series [3] is “gradually metabolized in vivo to 4,6-dihydroxy pyrazolo[3,4-d]pyrimidine”.
As for `Cc1cccc(-c2cnn3c(O)ccnc23)c1` [Compound (10), 3-(m-tolyl)pyrazolo[1,5a]pyrimidin-7-ol], in series [1], the “relative activity (α)” value is given as 50 and the IC50 was 100 nM.
As to “3-(m-tolyl)pyrazolo[1,5,a]pyrimidine-5,7-diol [(2)]”, in series [1], the “relative activity (α)” value is reported as 116.
Take “3-(1'-naphthyl)pyrazolo[1,5,a]pyrimidine-5,7-diol [Compound (9)]”: the “relative activity (α)” value in series [1] is recorded as 20.
Regarding “3-piperonylpyrazolo[1,5,a]pyrimidine-5,7-diol [(7)]”, in series [1], the “relative activity (α)” value was found to be 172.
The same measure, in the same setting: the result for “3-(p-bromophenyl)pyrazolo[1,5,a]pyramidine-5,7-diol [Compound (4)]” reads 56.
Consider `Oc1ccnc2c(-c3ccccc3)cnn12` [Compound (11), 3-phenylpyrazolo[1,5a]pyrimidine-7-ol], for which, in series [1], the “relative activity (α)” value is 33 and it took 150 nM to reach half-maximal inhibition (IC50).
With “3-(p-acetamidophenyl)pyrazolo[1,5,a]pyrimidine-5,7-diol [(6)]”, the “relative activity (α)” value in series [1] turned out to be 200.
The same measure, in the same setting: the same measure for “3-(p-tolyl)pyrazolo[1,5,a]pyrimidine-5,7-diol [(3)]”: 151.

Broadly, the IC50 is the concentration that gives 50% inhibition.

The record behind these values is patent publication US4021556A, “Xanthine oxidase inhibitors” (ICN Pharmaceuticals, Inc., priority 1975, dated 1977).
